Assay results published in patent publication US11555012B2 (Nimbus Artemis, Inc., priority 2018, dated 2023).
Where two headings read alike, the source gives them in different places.

Legend:
HepG2 cells [1] = details: Homo sapiens, HepG2, read-out: ACLY HepG2 14C-Pyruvate Assay serum free IC50 Cholesterol (IC50) [μM]
HepG2 cells [2] = assay: ACLY HepG2 14C-Pyruvate incorporation assay with serum (IC50 Fatty Acid); type: cell-based; details: Homo sapiens, table title: with serum, column head: serum free, 96 well, read-out: ACLY HepG2 14C-Pyruvate Assay serum free IC50 FA 96 well (IC50)
Source text: Example 333. ACLY HepG2 ^14C-Pyruvate Incorporation Assay (IC50 Fatty Acid)
(§1) 5. […] 6. […] 7. […] 8. […] 9. Repeat the Step 8 10.

HepG2 cells [3] = details: Homo sapiens, HepG2, read-out: ACLY HepG2 14C-Pyruvate Assay serum free IC50 FA (IC50) [μM]
Description: ACLY HepG2 ^14C-Pyruvate Incorporation Serum-Free Assay (IC50 Fatty
The protocol of the assay (below) was followed:
After 48 hours, change medium with fresh growth medium.
After 18 hours, replaced medium using 0.5 mL fresh medium (5.5 mM Glucose, without FBS, 1% PS, without Pyruvate) containing Compounds or 0.5% DMSO, incubated at 37° C., 5% CO2 for 1 hour.
Add 3 μci of [14C]-pyruvate per well to the cell samples were incubated at 37° C., 5% CO2 for 5 hours.
Medium was removed and placed into a 15 mL centrifuge tube. Add 0.5 mL of 0.1M NaOH to each well and then transfer the cell lysates into the corresponding 15 mL centrifuge tubes. 1.0 mL of EtOH and 0.17 mL 50% KOH were added to 15 mL tubes containing medium and cell suspensions, then shaking tube gently. […] Saponification 15 mL tubes containing medium and cell suspensions were incubated at 90° C. for 1 hour, then cooled to room temperature. […] Cholesterol Extraction 5 mL of petroleum ether was added per tube to extract Cholesterol, shaken vigorously, centrifuged at 1000 rpm for 5 min, and ˜5 mL of the petroleum ether layer was transferred to a new glass tube (18*180 mm). […] Acidification The samples in 15 mL tube were acidified directly with 1 mL concentrated HCl, make sure pH was below 1. […] Fatty Acids Extraction 5 mL of petroleum ether was added per tube, shaken vigorously, centrifuged at 1000 rpm for 5 min, 5 mL of the petroleum ether layer was transferred to the corresponding glass tube. […] Repeat the Step 8 10. Count The petroleum ether extracts were pooled and evaporated to dryness overnight. The residue from the petroleum ether fractions were resuspended in 500 μL of chloroform-hexane (1:1) containing 420 μg of linoleic acid as a carrier. Add 200 μL of resuspending (chloroform-hexane (1:1) containing 168 μg of linoleic acid) to 2 mL Ultima Gold™, after 30 min, count on a scintillation counter.

ACL [4] = biological target: T1, ACL (Homo sapiens (Human), UniProt P53396); assay: ADP-Glo Assay
Target sequence in this assay (P53396 other isoform, or with tags, fused parts or gaps isoform P53396-2): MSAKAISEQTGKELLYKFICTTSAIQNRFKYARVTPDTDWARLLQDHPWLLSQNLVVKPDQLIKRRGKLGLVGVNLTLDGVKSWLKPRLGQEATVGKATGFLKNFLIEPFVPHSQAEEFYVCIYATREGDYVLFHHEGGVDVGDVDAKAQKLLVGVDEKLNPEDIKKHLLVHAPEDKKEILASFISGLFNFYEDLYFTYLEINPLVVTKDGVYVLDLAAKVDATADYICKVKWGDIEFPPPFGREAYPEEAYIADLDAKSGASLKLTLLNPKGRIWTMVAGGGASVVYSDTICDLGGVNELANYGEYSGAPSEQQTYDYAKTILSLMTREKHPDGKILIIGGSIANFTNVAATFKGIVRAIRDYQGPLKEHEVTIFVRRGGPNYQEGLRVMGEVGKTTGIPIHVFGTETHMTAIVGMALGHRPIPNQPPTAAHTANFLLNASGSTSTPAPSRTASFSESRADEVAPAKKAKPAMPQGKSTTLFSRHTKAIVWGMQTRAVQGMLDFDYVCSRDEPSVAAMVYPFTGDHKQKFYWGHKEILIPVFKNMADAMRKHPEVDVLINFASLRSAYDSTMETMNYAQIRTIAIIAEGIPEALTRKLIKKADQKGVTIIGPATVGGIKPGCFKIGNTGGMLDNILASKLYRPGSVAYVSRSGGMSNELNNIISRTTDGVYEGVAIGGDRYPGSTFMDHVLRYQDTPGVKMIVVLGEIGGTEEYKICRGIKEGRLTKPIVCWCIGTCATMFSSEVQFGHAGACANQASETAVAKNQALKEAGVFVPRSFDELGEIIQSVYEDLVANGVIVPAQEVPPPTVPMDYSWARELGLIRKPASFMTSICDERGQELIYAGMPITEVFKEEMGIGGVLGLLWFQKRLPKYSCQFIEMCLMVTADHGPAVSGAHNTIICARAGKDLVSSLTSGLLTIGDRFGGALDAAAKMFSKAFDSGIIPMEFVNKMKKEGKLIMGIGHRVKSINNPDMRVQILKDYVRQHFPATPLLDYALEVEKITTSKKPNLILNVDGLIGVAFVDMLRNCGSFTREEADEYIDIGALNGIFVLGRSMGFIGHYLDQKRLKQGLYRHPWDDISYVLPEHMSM

HepG2 cells [5] = assay: ACLY HepG2 14C-Pyruvate incorporation assay with serum (IC50 Cholesterol); type: cell-based; details: Homo sapiens, table title: with serum, column head: serum free, 96 well
Source text: The protocol below was followed:
as §1

ACL [6] = biological target: T1, ACL; assay: ACLY-MDH Coupled Assay
Target sequence in this assay (P53396 whole entry, species assumed): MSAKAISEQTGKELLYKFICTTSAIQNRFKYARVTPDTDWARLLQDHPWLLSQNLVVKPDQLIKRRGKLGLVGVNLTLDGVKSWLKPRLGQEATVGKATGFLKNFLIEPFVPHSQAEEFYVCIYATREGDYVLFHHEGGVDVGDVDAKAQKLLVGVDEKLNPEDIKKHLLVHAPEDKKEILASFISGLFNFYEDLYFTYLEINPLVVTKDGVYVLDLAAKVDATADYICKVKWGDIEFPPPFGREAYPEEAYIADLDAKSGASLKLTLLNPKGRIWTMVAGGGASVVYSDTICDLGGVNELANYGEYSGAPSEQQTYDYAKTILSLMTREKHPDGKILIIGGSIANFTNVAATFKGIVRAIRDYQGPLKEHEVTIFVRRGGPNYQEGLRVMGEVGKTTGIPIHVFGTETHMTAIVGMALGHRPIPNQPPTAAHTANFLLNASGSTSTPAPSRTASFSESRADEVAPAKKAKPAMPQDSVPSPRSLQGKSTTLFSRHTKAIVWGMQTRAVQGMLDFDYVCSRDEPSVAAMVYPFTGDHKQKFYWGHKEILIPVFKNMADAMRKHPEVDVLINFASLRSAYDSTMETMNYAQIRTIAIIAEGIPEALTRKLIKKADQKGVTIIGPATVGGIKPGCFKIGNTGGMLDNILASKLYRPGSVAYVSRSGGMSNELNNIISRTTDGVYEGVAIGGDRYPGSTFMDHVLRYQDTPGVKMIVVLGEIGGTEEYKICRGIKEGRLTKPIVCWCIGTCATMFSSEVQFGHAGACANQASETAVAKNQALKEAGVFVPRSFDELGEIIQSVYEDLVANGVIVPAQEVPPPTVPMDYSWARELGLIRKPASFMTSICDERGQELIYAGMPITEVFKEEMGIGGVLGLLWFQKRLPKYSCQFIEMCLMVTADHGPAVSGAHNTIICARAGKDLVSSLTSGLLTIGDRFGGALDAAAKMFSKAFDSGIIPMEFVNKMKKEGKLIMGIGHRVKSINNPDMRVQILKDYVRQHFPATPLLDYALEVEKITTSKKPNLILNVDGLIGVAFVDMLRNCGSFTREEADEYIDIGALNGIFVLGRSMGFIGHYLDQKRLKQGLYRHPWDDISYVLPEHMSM
Description: Compounds of the present invention were evaluated in an ACLY Coupled Assay.
The assay protocol for the Coupled Assay (below) was followed:
b) Add 1 μL cpds to 96 assay plate, Test cpd conc: 100/30/10 μM top dose, 3 folds dilution, 10+0+control (control: buffer without ACL+DMSO) points, 1000 rpm for 1 min, incubation at 25° C. for 60 min

[7] = read-out: ACL-ADP-Glo (IC50), 3 nM ACL, 15 μM ATP, 3 μM CoA, 300 μM Citrate
[8] = read-out: ACL-MDH Coupled Assay (IC50), 8 nM ACL, 60 μM CoA Na2, 85 μM Citrate, 250 μM ATP, 250 μM NADH

SMILES	IC50 (HepG2 cells [1])	IC50 (HepG2 cells [2])	IC50 (HepG2 cells [3])	IC50 (ACL [4]; [7])	IC50 (HepG2 cells [5])	IC50 (ACL [6]; [8])	IC50 (ACL [4])	IC50 (ACL [6])
CCOC(=O)c1cc(Cl)c(O)c(S(=O)(=O)Nc2cc(-c3ccccc3)c(F)cc2F)c1 [I-84, ethyl 3-chloro-5-[(2,4-difluoro-5-phenylphenyl)sulfamoyl]-4-hydroxybenzoate]	< 1 µM	1 to 5 µM	1 to 10 µM	< 50 nM	< 1000 nM	< 50 nM		
O=S(=O)(Nc1cc(-c2ccccc2)c(F)cc1F)c1cc(-c2cncs2)cc(Cl)c1O [I-123, 3-chloro-N-(4,6-difluoro-[1,1′-biphenyl]-3-yl)-2-hydroxy-5-(thiazol-5-yl)benzenesulfonamide]	< 1 µM	1 to 5 µM	1 to 10 µM	< 50 nM	< 1000 nM	< 50 nM		
O=S(=O)(Nc1cc(-c2ccccc2)c(F)cc1F)c1cc(F)cc(Cl)c1O [I-135, 3-chloro-N-[4,6-difluoro-[1,1-biphenyl]-3-yl]-5-fluoro-2-hydroxybenzene-1-sulfonamide]	1 to 5 µM		1 to 10 µM				50 to 500 nM	50 to 500 nM
O=C(c1cc(Cl)c(O)c(S(=O)(=O)Nc2cc(-c3cc4ccccc4s3)c(F)cc2F)c1)N1CCC1 [I-138, 5-(azetidine-1-carbonyl)-N-[5-(1-benzothiophen-2-yl)-2,4-difluorophenyl]-3-chloro-2-hydroxybenzene-1-sulfonamide]	1 to 5 µM		1 to 10 µM	< 50 nM		< 50 nM		
COc1ccc(-c2ccccc2)cc1NS(=O)(=O)c1cc(C(=O)N2CCC2)cc(Cl)c1O [I-145, 5-(azetidine-1-carbonyl)-3-chloro-2-hydroxy-N-[4-methoxy-[1,1-biphenyl]-3-yl]benzene-1-sulfonamide]	1 to 5 µM		> 10 µM	< 50 nM		< 50 nM		
Cc1cc(Cl)c(O)c(S(=O)(=O)Nc2cc(-c3ccccc3)c(F)cc2F)c1 [I-157, 3-chloro-N-(4,6-difluoro-[1,1′-biphenyl]-3-yl)-2-hydroxy-5-methylbenzenesulfonamide]	1 to 5 µM	5 to 20 µM	1 to 10 µM		1000 to 5000 nM		50 to 500 nM	50 to 500 nM
COC(=O)c1cc(Cl)c(O)c(S(=O)(=O)Nc2cc(C(C)C)c(F)cc2F)c1 [I-198, Methyl 3-chloro-5-(N-(2,4-difluoro-5-isopropylphenyl)sulfamoyl)-4-hydroxybenzoate]	1 to 5 µM		> 10 µM	< 50 nM		< 50 nM		
O=C(O)c1ccc(-c2ccccc2)cc1NS(=O)(=O)c1cc(Cl)cc(Cl)c1 [I-208, 3-((3,5-dichlorophenyl)sulfonamido)-[1,1′-biphenyl]-4-carboxylic Acid]	1 to 5 µM		1 to 10 µM				50 to 500 nM	50 to 500 nM
CC(C)C(=O)Oc1c(Cl)cc(-c2cncs2)cc1S(=O)(=O)Nc1cc(-c2ccccc2)c(F)cc1F [I-213, 2-chloro-6-(N-(4,6-difluoro-[1,1′-biphenyl]-3-yl)sulfamoyl)-4-(thiazol-5-yl)phenyl Isobutyrate]	1 to 5 µM		1 to 10 µM				50 to 500 nM	50 to 500 nM
O=C(O)c1ccc(-c2ccccc2)cc1NS(=O)(=O)c1cc(Cl)cc(C(F)(F)F)c1 [I-220, 3-((3-chloro-5-(trifluoromethyl)phenyl)sulfonamido)-[1,1′-biphenyl]-4-carboxylic acid]	1 to 5 µM	1 to 5 µM	1 to 10 µM		1000 to 5000 nM		50 to 500 nM	50 to 500 nM
O=C(O)c1ccc(-c2ccccc2)cc1NS(=O)(=O)c1cc(F)cc(Cl)c1 [I-233, 3-((3-chloro-5-fluorophenyl)sulfonamido)-[1,1′-biphenyl]-4-carboxylic acid]	5 to 20 µM		1 to 10 µM				500 to 20000 nM	50 to 500 nM
O=S(=O)(Nc1ccc(-c2ccccn2)cc1F)c1cc(Cl)cc(Cl)c1O [I-235, 3,5-dichloro-N-(2-fluoro-4-(pyridin-2-yl)phenyl)-2-hydroxybenzenesulfonamide]	1 to 5 µM		> 10 µM				500 to 20000 nM	500 to 30000 nM
O=C(Oc1c(Cl)cc(C(=O)N2CCC2)cc1S(=O)(=O)Nc1cc(-c2ccccc2)c(F)cc1F)C1CC1 [I-236, 4-(azetidine-1-carbonyl)-2-chloro-6-(N-(4,6-difluoro-[1,1′-biphenyl]-3-yl)sulfamoyl)phenyl cyclopropanecarboxylate]	1 to 5 µM		> 10 µM	< 50 nM				50 to 500 nM
O=C(Nc1cc(-c2ccccc2)ccc1C(=O)O)c1cc(Cl)cc(Cl)c1 [I-260, 3-(3,5-dichlorobenzamido)-[1,1′-biphenyl]-4-carboxylic Acid]	1 to 5 µM		1 to 10 µM				500 to 20000 nM	500 to 30000 nM
O=S(=O)(Nc1cc(-c2ccccc2)c(F)cc1F)c1cc(CN2CCC2)cc(Cl)c1O [I-272, 5-(azetidin-1-ylmethyl)-3-chloro-N-(4,6-difluoro-[1,1′-biphenyl]-3-yl)-2-hydroxybenzenesulfonamide]	1 to 5 µM		> 10 µM				500 to 20000 nM	500 to 30000 nM
O=C(O)c1ccc(-c2cccs2)cc1NS(=O)(=O)c1cc(Cl)cc(Cl)c1 [I-275, 2-((3,5-dichlorophenyl)sulfonamido)-4-(thiophen-2-yl)benzoic acid]	1 to 5 µM		1 to 10 µM				50 to 500 nM	50 to 500 nM
COc1c(Cl)cc(Cl)cc1S(=O)(=O)Nc1cc(-c2ccccc2)ccc1C(=O)O [I-281, 3-((3,5-dichloro-2-methoxyphenyl)sulfonamido)-[1,1′-biphenyl]-4-carboxylic Acid]	1 to 5 µM		1 to 10 µM				50 to 500 nM	50 to 500 nM
O=C(O)c1cc(F)c(-c2ccccc2)cc1NS(=O)(=O)c1cc(Cl)cc(Cl)c1 [I-287, 5-((3,5-dichlorophenyl)sulfonamido)-2-fluoro-[1,1′-biphenyl]-4-carboxylic Acid]	1 to 5 µM		1 to 10 µM				50 to 500 nM	50 to 500 nM
COc1c(Cl)cc(C(F)(F)F)cc1S(=O)(=O)Nc1cc(-c2ccccc2)ccc1C(=O)O [I-296, 3-((3-chloro-2-methoxy-5-(trifluoromethyl)phenyl)sulfonamido)-[1,1′-biphenyl]-4-carboxylic Acid]	1 to 5 µM		1 to 10 µM				50 to 500 nM	50 to 500 nM
O=c1[nH]cc(Cl)cc1S(=O)(=O)Nc1cc(-c2ccccc2)c(F)cc1F [I-298, 5-chloro-N-[4,6-difluoro-[1,1-biphenyl]-3-yl]-2-oxo-1,2-dihydropyridine-3-sulfonamide]	5 to 20 µM		> 10 µM				50 to 500 nM	50 to 500 nM
O=C(O)c1ccc(C2CC2)cc1NS(=O)(=O)c1cc(Cl)cc(C(F)(F)F)c1 [I-344, 2-((3-chloro-5-(trifluoromethyl)phenyl)sulfonamido)-4-cyclopropylbenzoic acid]	1 to 5 µM		1 to 10 µM				500 to 20000 nM	500 to 30000 nM
CCOc1c(Cl)cc(Cl)cc1S(=O)(=O)Nc1cc(-c2ccccc2)ccc1C(=O)O [I-348, 3-((3,5-dichloro-2-ethoxyphenyl)sulfonamido)-[1,1′-biphenyl]-4-carboxylic Acid]	1 to 5 µM		1 to 10 µM				50 to 500 nM	50 to 500 nM
O=C(Nc1cc(-c2ccccc2)ccc1C(=O)O)c1cc(Cl)cc(C(F)(F)F)c1 [I-349, 3-(3-chloro-5-(trifluoromethyl)benzamido)-[1,1′-biphenyl]-4-carboxylic Acid]	1 to 5 µM		1 to 10 µM				500 to 20000 nM	500 to 30000 nM
O=C(O)c1c(NS(=O)(=O)c2cc(Cl)cc(Cl)c2)sc2ccccc12 [I-361, 2-((3,5-dichlorophenyl)sulfonamido)benzo[b]thiophene-3-carboxylic acid]	1 to 5 µM		> 10 µM				500 to 20000 nM	500 to 30000 nM
Cc1cc(C(=O)O)c(NS(=O)(=O)c2cc(Cl)cc(C(F)(F)F)c2)cc1-c1ccccc1 [I-364, 5-((3-chloro-5-(trifluoromethyl)phenyl)sulfonamido)-2-methyl-[1,1′-biphenyl]-4-carboxylic Acid]	1 to 5 µM		1 to 10 µM				500 to 20000 nM	500 to 30000 nM
O=C(O)c1ccc(-c2ccccc2)cc1NS(=O)(=O)c1cccc(-n2cnnn2)c1 [I-372]	1 to 5 µM		> 10 µM				500 to 20000 nM	500 to 30000 nM
